# In ChEMBL document CHEMBL1201862, “PubChem BioAssay data set” (2004):
# Active and inactive are the calls of the source.
# What was measured:
# Large T antigen = Large T antigen (Simian virus 40, UniProt P03070); assay type: functional, Betapolyomavirus macacae;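 also: Confirmatory-stage PubChem screen for compounds that inhibit SV40 T antigen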
# [1] = molecular target: T1, Replicative DNA helicase DnaB (Mycobacterium tuberculosis, UniProt P9WMR3); assay: DnaB intein splicing inhibitors, dose response, biochemical, cell-free fluorescence (AID 449749); assay type: functional
# T1 sequence (P9WMR3 whole entry): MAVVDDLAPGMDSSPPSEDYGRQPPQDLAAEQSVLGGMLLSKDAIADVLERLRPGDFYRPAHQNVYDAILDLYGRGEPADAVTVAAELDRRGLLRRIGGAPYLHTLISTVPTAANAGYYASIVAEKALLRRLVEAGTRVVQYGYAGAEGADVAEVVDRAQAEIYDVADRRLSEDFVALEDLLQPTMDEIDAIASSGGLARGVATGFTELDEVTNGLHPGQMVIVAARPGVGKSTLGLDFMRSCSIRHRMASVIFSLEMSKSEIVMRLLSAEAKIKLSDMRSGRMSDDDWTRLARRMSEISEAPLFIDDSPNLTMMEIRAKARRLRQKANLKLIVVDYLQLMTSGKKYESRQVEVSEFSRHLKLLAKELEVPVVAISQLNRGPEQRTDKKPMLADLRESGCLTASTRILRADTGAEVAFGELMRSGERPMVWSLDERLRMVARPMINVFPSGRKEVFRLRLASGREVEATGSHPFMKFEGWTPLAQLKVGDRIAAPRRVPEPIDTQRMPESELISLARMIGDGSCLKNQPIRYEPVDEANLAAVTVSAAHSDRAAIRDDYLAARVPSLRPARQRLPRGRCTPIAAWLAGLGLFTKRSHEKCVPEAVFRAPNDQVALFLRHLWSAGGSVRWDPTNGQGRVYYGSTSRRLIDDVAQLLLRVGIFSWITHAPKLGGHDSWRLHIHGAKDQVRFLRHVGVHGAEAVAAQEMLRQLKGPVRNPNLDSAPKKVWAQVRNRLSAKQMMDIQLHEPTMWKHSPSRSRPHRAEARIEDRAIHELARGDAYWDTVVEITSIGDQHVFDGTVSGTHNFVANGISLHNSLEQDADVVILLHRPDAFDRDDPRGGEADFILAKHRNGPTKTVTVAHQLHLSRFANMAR
# Protein RecA = molecular target: T2, Protein RecA (Mycobacterium tuberculosis, UniProt P9WHJ3); assay: Fluorescence Cell-Free Homogeneous Dose Retest to Identify Inhibitors of RecA-Intein Splicing Activity. [Related pubchem assays (depositor defined):AID2097, AID2223, AID489010, AID492950]; assay type: functional
# T2 sequence (P9WHJ3 whole entry): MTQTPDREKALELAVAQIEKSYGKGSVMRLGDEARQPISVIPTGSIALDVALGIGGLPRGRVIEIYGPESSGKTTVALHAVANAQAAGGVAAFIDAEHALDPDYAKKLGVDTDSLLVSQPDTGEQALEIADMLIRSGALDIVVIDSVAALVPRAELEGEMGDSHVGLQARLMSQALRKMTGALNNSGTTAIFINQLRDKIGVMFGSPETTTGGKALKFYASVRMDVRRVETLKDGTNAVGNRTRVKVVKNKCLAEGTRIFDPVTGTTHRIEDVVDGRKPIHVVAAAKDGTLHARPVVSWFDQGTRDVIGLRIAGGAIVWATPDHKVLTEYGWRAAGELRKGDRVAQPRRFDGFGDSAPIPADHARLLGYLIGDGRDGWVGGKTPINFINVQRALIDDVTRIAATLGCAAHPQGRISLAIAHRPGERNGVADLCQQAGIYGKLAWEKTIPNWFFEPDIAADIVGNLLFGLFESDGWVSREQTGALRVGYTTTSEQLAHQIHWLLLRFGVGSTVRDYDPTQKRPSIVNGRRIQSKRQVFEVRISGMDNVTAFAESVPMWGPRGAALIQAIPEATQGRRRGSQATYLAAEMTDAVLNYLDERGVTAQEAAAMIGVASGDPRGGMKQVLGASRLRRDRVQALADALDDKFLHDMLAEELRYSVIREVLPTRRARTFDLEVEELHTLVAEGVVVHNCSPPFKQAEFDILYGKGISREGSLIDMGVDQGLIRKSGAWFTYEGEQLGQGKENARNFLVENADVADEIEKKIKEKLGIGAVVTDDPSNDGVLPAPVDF
# [2] = molecular target: T3, Rac GTPase-activating protein 1 (Homo sapiens, UniProt Q9H0H5); assay: blockers of MgcRacGAP-driven Rac1 GTP hydrolysis – biochemical, ADP Hunter fluorescence, primary and confirmatory, confirmation (AID 624330); assay type: functional
# T3 sequence (Q9H0H5 whole entry): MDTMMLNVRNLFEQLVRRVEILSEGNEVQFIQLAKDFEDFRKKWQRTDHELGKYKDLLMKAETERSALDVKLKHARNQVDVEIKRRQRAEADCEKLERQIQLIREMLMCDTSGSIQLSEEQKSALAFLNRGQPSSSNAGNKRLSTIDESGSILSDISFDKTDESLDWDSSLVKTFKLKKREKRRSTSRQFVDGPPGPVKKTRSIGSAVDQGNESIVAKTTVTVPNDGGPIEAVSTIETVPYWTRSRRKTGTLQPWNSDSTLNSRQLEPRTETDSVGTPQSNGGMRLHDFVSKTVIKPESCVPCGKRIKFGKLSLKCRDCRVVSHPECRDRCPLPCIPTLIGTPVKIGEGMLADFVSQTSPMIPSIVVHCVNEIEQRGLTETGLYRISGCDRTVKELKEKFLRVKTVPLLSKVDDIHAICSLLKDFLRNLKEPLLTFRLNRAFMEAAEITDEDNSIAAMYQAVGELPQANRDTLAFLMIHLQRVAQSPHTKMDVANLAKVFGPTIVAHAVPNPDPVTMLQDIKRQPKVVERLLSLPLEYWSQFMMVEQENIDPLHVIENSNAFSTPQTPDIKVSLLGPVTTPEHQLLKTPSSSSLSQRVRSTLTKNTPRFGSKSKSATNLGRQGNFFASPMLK
# [3] = molecular target: T4, Corticotropin-releasing factor receptor 2/Corticotropin-releasing factor-binding protein (Homo sapiens, UniProt P24387+Q13324); assay: Dose Response confirmation of uHTS hits for small molecule antagonists of the CRF-binding protein and CRF-R2 receptor complex.; assay type: functional; conditions: read-out: IC50_Mean
# T4 sequence (Q13324 whole entry): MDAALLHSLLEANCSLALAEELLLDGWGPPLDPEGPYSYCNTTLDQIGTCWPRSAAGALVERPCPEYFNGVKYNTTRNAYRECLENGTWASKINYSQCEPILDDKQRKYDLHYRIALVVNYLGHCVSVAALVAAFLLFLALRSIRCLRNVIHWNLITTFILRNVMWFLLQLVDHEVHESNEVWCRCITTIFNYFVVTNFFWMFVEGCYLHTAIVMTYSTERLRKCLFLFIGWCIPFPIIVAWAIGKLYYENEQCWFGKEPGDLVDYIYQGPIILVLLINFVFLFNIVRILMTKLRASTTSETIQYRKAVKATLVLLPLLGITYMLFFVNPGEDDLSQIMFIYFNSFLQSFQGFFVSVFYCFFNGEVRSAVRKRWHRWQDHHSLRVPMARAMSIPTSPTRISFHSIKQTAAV
# T4 sequence (P24387 whole entry): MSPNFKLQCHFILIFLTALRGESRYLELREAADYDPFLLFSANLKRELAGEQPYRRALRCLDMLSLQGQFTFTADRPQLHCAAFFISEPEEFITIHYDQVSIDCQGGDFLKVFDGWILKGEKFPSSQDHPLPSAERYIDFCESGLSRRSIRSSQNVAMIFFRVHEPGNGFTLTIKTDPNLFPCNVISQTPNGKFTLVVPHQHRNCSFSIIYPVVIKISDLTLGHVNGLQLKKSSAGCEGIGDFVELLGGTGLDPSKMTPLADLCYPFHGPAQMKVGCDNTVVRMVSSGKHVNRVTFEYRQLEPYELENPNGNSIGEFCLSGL
# [4] = molecular target: T4, Corticotropin-releasing factor receptor 2/Corticotropin-releasing factor-binding protein; assay: activators of CRF receptor 2 with binding protein – uHTS hits, confirmation (AID 602473); assay type: functional; conditions: read-out: EC50_Mean
# [5] = Luminescence Cell-Based Dose Confirmation HTS to Identify Activators of 5'UTR Stem-Loop Driven Alpha-Synuclein mRNA Translation in H4 Neuroglioblastoma Cells. [Related pubchem assays: 1829 (Project Summary), 1814 (Primary HTS)]; assay type: functional
# [6] = Luminescence Cell-Based Dose Response HTS to Identify Activators of Luciferase Translation or Activity in H4 […] Cells. [Related pubchem assays: 1829 (Project Summary), 1814 (Primary HTS)]; assay type: functional
# H4 = assay: Luminescence Cell-Based Dose Response HTS to Identify Activators of 5'UTR Stem-Loop Driven Prion Protein mRNA Translation in H4 Neuroglioblastoma Cells. [Related pubchem assays: 1829 (Project Summary), 1814 (Primary HTS)]; assay type: functional; conditions: Homo sapiens
# [7] = molecular target: FAD-linked sulfhydryl oxidase ALR (Homo sapiens, UniProt P55789); assay: ALR-catalysed DTT oxidation blockers – biochemical, H2O2 detection, luminescence, cherry-pick, dose response (AID 493248)
# Sequence of FAD-linked sulfhydryl oxidase ALR (P55789 whole entry): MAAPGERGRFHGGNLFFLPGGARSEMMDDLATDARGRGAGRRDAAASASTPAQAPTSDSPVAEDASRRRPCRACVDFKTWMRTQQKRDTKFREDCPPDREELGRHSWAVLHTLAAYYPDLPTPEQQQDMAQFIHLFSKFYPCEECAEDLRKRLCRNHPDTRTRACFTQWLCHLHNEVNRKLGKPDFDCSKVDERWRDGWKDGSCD
# [8] = tested on: Streptococcus sp. 'group A'; assay: Streptococcus pyogenes SK(-)GAS viability under kanamycin – luminescence, BacTiterGlo, confirmation, counter-screen for streptokinase expression inhibitor project, dose response (AID 1900); assay type: functional, organism-based
# Streptokinase A = molecular target: T5, Streptokinase A (Streptococcus pyogenes serotype M1, UniProt P10520); assay: viability-normalized secreted streptokinase activity reduction – plasminogen activation absorbance, OD405, dose response (AID 1914); assay type: functional, Streptococcus pyogenes M1 GAS;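 also: secreted streptokinase activity via plasminogen activation per viability signal from cell pellet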
# T5 sequence (P10520 whole entry): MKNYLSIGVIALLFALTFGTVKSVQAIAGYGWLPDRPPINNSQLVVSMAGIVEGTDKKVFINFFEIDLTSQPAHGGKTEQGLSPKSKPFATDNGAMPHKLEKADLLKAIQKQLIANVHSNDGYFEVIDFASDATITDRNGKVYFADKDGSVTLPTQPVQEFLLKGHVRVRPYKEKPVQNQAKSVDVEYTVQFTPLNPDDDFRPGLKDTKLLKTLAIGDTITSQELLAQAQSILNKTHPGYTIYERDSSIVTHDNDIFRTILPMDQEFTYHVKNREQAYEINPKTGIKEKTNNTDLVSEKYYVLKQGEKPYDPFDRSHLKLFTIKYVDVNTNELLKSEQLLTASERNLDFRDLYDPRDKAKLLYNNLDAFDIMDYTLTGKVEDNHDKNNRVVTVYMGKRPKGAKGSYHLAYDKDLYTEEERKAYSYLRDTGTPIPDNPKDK
# Streptococcus = assay: GAS UMAA2166 growth inhibition – luminescence, BacTiterGlo, counter-screen for streptokinase expression inhibitor project, dose response (AID 1915); assay type: functional, organism-based;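 also: potency for reduction of bacterial viability or growth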
# Paired box protein Pax-8 = Paired box protein Pax-8 (Homo sapiens, UniProt Q06710); assay: PAX8 transcriptional activity inhibition in RMG-I – RMG-I cells, luciferase, cherry-pick, dose response (AID 687027); assay type: functional, cell-based;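 also: luciferase reporter driven by Pax8 target thyroperoxidase promoter measured by SteadyGlo luminescence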
# Sequence of Paired box protein Pax-8 (Q06710 whole entry): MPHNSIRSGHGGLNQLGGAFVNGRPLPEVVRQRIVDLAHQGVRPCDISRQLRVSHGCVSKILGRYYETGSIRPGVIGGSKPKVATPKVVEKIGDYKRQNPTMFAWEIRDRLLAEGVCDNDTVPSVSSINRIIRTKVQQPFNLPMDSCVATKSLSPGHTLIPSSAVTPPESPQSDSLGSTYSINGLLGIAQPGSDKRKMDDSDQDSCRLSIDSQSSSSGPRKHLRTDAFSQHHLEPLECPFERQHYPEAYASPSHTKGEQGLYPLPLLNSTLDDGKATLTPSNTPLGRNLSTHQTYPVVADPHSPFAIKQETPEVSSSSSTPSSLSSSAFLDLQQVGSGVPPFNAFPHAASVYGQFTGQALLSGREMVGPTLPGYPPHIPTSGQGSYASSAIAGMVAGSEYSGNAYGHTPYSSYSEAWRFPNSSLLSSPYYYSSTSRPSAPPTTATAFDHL
# Cytochrome P450 2D6 = Cytochrome P450 2D6 (Homo sapiens, UniProt P10635);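 also: CYP2D6 member of a cytochrome P450 panel assay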
# Sequence of Cytochrome P450 2D6 (P10635 whole entry): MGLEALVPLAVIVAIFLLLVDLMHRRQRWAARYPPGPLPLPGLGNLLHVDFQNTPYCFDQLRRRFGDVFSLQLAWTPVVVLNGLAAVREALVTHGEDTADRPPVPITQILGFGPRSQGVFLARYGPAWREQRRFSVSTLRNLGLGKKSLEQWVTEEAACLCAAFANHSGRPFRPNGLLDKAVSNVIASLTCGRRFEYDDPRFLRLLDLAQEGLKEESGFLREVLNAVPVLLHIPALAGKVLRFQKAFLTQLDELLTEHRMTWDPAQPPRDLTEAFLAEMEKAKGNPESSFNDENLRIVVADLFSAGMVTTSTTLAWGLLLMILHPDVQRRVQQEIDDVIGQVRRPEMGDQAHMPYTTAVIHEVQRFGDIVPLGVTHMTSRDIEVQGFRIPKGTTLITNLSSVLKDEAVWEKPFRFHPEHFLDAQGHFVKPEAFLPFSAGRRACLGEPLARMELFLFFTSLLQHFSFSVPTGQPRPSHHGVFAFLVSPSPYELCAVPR
# [9] = Luminescence Cell-Based Dose Response HTS to Identify Inhibitors of 5'UTR Stem-Loop Driven Prion Protein mRNA Translation in H4 Neuroglioblastoma Cells. [Related pubchem assays: 1827 (Project Summary), 1813 (Primary HTS)]; assay type: functional
# [10] = alpha-synuclein stem-loop luciferase translation blockers – H4 neuroglioma cells, luminescence, confirmation (AID 1988); assay type: functional, cell-based
# Sequence of Large T antigen (P03070 whole entry): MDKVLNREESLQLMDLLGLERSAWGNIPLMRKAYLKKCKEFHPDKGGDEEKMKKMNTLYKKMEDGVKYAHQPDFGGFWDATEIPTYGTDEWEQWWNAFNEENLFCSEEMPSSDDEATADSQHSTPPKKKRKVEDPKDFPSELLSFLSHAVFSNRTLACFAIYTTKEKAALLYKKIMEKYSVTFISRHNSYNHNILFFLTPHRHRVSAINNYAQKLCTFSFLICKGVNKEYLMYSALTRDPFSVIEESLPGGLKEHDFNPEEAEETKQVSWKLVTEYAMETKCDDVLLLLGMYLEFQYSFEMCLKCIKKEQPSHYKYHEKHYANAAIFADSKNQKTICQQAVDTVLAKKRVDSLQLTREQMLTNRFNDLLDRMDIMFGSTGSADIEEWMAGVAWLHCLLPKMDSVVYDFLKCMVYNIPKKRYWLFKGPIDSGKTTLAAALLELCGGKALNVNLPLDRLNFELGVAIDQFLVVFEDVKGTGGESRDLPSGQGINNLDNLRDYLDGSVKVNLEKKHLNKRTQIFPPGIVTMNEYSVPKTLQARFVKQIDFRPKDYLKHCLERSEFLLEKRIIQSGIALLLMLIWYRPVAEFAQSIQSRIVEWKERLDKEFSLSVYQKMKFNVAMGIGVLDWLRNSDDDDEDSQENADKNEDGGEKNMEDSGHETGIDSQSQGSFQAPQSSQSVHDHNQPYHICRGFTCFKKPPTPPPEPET
Compound,IC50 (Large T antigen),IC50 [3],EC50 [4],other results
CCOc1cc(C(c2c(C)n[nH]c2O)c2c(C)n[nH]c2O)ccc1OC(=O)c1cccc([N+](=O)[O-])c1,> 100 µM (active),,,AC50 [1]: 0.365 µM (active); EC50 (Protein RecA): 0.205 µM (active)
CN1C(=O)NC(c2ccc(O)cc2)C2=C1CN(c1ccc(O)cc1)C2=O (stereo not given),8.64 µM (active),,,IC50 [2]: 34.6 µM (active)
Cc1cc(SCC(=O)Nc2cccc(S(N)(=O)=O)c2)c(C)cc1Br,,> 47.1 µM (inactive),> 53 µM (inactive),
O=C(NC(=S)N1CCN(c2ccc(O)cc2)CC1)c1cccs1,5.39 µM (active),,,
CCOC(=O)C1=C(O)/C(=C\c2ccc(O)c(OCC)c2)N=C1C,9.94 µM (active),,,IC50 [2]: 43.3 µM (active)
COc1cc(C#CC#CCN2CCCCC2)ccc1O,10.3 µM (active),,,EC50 [5]: 6.87 µM (active); EC50 [6]: 6.95 µM (active); EC50 (H4): > 120 µM (not active); AC50 [7]: 3.57 µM (active)
Nc1nc(-c2ccc3c(c2)OCCO3)cs1,,> 47.1 µM (inactive),> 53 µM (inactive),
COc1ccc(NC(=O)CN2CCC3(O)CCCCC3C2c2cc(OC)ccc2OC)cc1 (stereo not given),,> 47.1 µM (inactive),> 53 µM (inactive),
Nc1ccc(NC(=O)NC2CCCCC2)cc1,10.5 µM (active),,,
CC(C)CNC(=O)CN1c2cccc3cccc(c23)S1(=O)=O,,> 47.1 µM (inactive),> 53 µM (inactive),
CC(=O)Nc1ccc(S(=O)(=O)Nc2nc3ccccc3nc2Nc2ccc(N)cc2)cc1,18.5 µM (active),,,
CCCN1CCc2c(sc(NC(=O)c3ccc(S(=O)(=O)N4CCN(C(=O)OCC)CC4)cc3)c2C(N)=O)C1,,,15.2 µM (active),EC50 [8]: 51.8 µM (active); EC50 (Streptokinase A): > 150 µM (not active); EC50 (Streptococcus): > 150 µM (not active)
CCCC1=Nc2nc(C)nn2C(c2cccnc2)/C1=C(\O)OCC (stereo not given),,> 47.1 µM (inactive),> 53 µM (inactive),
CCOC(=O)C1(C(=O)OCC)CCN(S(=O)(=O)c2ccccc2)CC1,,> 47.1 µM (inactive),> 53 µM (inactive),
Cc1ccc(S(=O)(=O)NN=Cc2c(O)ccc3ccccc23)cc1,,> 47.1 µM (inactive),> 53 µM (inactive),
COc1ccccc1S(=O)(=O)N(C)C[C@@H]1Oc2cc(C#CCC3CCCC3)ccc2S(=O)(=O)N([C@@H](C)CO)C[C@@H]1C,,,,AC50 (Paired box protein Pax-8): 6.16 µM (active)
N#C/C(=C\c1ccc(O)c(O)c1)C(=O)NCCc1ccccc1,7.1 µM (active),,,AC50 (Cytochrome P450 2D6): 39.8 µM (inconclusive)
O=C(O)c1cccc(N/N=C/c2cccc3ccccc23)c1,,,,EC50 [9]: 4.51 µM (active); EC50 [10]: 1.5 µM (active)
CCn1c(SCC(=O)N/N=C/c2ccc(O)c(OC)c2)nc2ccccc21,20.4 µM (active),,,
CCOc1ccc(/C=N/NC(=O)CSc2ccccn2)cc1O,17.7 µM (active),,,
